The values below come from the METLIN SMRT retention time set (Domingo-Almenara et al. 2019).

This data set is described as follows: gradient 5% acetonitrile 3 min, to 50% in 2 min, to 85% in 15 min, held 3 min, 100 µL/min. The note with it: column: Zorbax Extend-C18 2.1 x 50 mm; eluents: water / acetonitrile, 0.1% formic acid. A digest of the protocol:
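Pure standards were analyzed in mixtures of ~100 molecules using HPLC coupled to a quadrupole time-of-flight mass spectrometer, in both positive and negative ionization mode. Separation used a Zorbax Extend-C18 column (2.1 × 50 mm, 1.8 μm) at 100 μL/min, with water and acetonitrile each containing 0.1% formic acid. Dead and dwell volumes were 40 μL and 900 μL, and data were collected over 3 months. Retention time was read from computationally picked adduct peaks, each inspected manually.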
`CC(C)n1cc(S(=O)(=O)NCc2cccc(Cl)c2)c2cccnc21` displayed an RP-LC retention time of 928 s.

Regarding `Cc1nnsc1C(=O)N1CCC2(CC1)OCCN2S(=O)(=O)c1ccc(Cl)cc1`, the RP-LC retention time amounted to 817 s.

Turning to `COc1ccccc1CCC(=O)Nc1ccc2c(c1)Sc1ncccc1C(=O)N2C(C)C`, the RP-LC retention time was determined as 922 s.

Molecule `Cc1cc2nn(CC(=O)Nc3ccc4c(c3)OCCO4)c(=O)n2c(-c2ccc(F)cc2)n1` returned an RP-LC retention time of 783 s.

`COc1ccc(CNC(=O)c2c(C)sc3ccn(Cc4ccc(F)cc4)c(=O)c23)cc1` came in with an RP-LC retention time of 974 s.

In turn, `Cc1cc(OCC(=O)Nc2cccc(Cl)c2)nc(N2CCN(c3ccccc3)CC2)n1` gave an RP-LC retention time of 904 s.

`CCOCCCNC(=O)c1ccc(OCc2nnc(C(=O)Nc3ccccc3F)s2)cc1` had an RP-LC retention time of 853 s.

Regarding `O=C(N[C@H]1C[C@@H]2C[C@H]1CN2C(=O)c1cccc(OC(F)(F)F)c1)c1ccccc1`, the RP-LC retention time is 846 s.

For `CC(C)n1c(CCNC(=O)Cc2ccc(F)cc2)nc2cccnc21`, the RP-LC retention time was determined as 672 s.

Regarding `COc1ccc(/C=C/C(=O)c2c(OC)cc(O)cc2OC)cc1`, the RP-LC retention time amounted to 1160 s.

`COc1cccc(NC(=O)C2CC(=O)N(c3ccc4c(c3)CCN4C(=O)C3CC3)C2)c1` (centres undefined) came in with an RP-LC retention time of 655 s.

Molecule `Fc1cccc(-c2nc3ncccn3c2NCc2ccc(Cl)cc2)c1` registered an RP-LC retention time of 834 s.

In the case of `CN1C(=O)CCc2cc(NS(=O)(=O)c3ccccc3C(F)(F)F)ccc21`, the RP-LC retention time turned out to be 779 s.

As for `COc1ccc(C2NCCc3c2[nH]c2ccccc32)cc1O` (centres undefined), the RP-LC retention time amounted to 582 s.

`CCc1ccc(OCc2nc(CCN(C)C(=O)c3ccco3)no2)cc1`: the RP-LC retention time turned out to be 910 s.

The molecule `Cc1cccc(-c2ncccc2CNS(=O)(=O)Cc2ccccc2F)c1` yielded an RP-LC retention time of 705 s.

As to `Cn1ncc2c3ccccc3n(CC(=O)N3CCN(Cc4ccc5c(c4)OCO5)CC3)c2c1=O`, the RP-LC retention time came to 622 s.

`CCn1nccc1C1CCCN1C(=O)c1c(Cl)cnn1C` (centres undefined) showed an RP-LC retention time of 677 s.

Molecule `CC(CCc1ccccc1)NC(=O)C1CCN(S(C)(=O)=O)c2cc(Cl)ccc2O1` (centres undefined) showed an RP-LC retention time of 1070 s.

Molecule `O=C(CCc1nc2ccccc2n(CC(=O)Nc2ccc3c(c2)OCO3)c1=O)NCc1ccccc1` had an RP-LC retention time of 797 s.

`Cc1ccccc1-c1cc2c(=O)n(Cc3nc(-c4ccc5c(c4)OCO5)no3)ccn2n1` had an RP-LC retention time of 1050 s.

Molecule `COc1ccc(CNC(=O)C2(C)CCCN(S(=O)(=O)c3ccc(Br)cc3)C2)cc1` (centres undefined) had an RP-LC retention time of 1020 s.

For `Cc1ccc(-c2nc(C3CC(=O)N(c4ccc(F)c(Cl)c4)C3)no2)c(C)c1` (centres undefined), the RP-LC retention time amounted to 1250 s.

On to `O=C(Nc1ccc2c(c1)OCO2)N1CCC(n2c(-c3ccco3)nc3cccnc32)C1` (centres undefined), for which the RP-LC retention time is 726 s.

The molecule `COc1c(Sc2ccc([N+](=O)[O-])cc2)c(C)nn1-c1ccccc1` yielded an RP-LC retention time of 1130 s.

Consider `Cc1cccc(-c2nc(NCc3ccncc3)ncc2C(=O)O)c1`, for which the RP-LC retention time was found to be 587 s.

In turn, `CCN1CCN(S(=O)(=O)c2cc(-c3[nH]ncc3C(=O)N3CCCC3)oc2C)CC1` displayed an RP-LC retention time of 577 s.

In turn, `Cc1cc(C)c(C)c(S(=O)(=O)N2CCc3nc[nH]c3C2)c1C` gave an RP-LC retention time of 666 s.

For the molecule `COCc1nnc2n1CCC(NC(=O)C1CC=CC1)CC2` (centres undefined), the RP-LC retention time was found to be 587 s.

Molecule `Cc1cccc(NC(=O)Cn2ccc3sccc3c2=O)c1` had an RP-LC retention time of 701 s.

In the case of `Cc1ccc2c(c1)C(c1ccccc1)NCC(=O)N2` (centres undefined), the RP-LC retention time was 544 s.

In the case of `O=C(NCc1cccnc1)c1ccc2c(c1)N(CC(=O)N1CCCC1)C(=O)CO2`, the RP-LC retention time was 619 s.

Consider `Cc1nc(OCC(=O)Nc2cccc(C)c2C)c2ccccc2n1`, for which the RP-LC retention time was 737 s.

In the case of `CC1CCN(C(=O)C2c3ccccc3CCN2CC(=O)NCc2cccc(Cl)c2)CC1` (centres undefined), the RP-LC retention time was 973 s.

Consider `Cc1noc(-c2ccc(OC3CN(C(=O)Nc4cccc(F)c4)C3)cc2)n1`, for which the RP-LC retention time came to 838 s.

In turn, `Cc1ccc(NC(=O)c2[nH]c3cc(C)sc3c2CN(C)C)c(Cl)c1` registered an RP-LC retention time of 708 s.

`COc1ccc(OC)c(CNC(=O)C2CCN(S(=O)(=O)c3ccc4c(c3)NC(=O)CO4)CC2)c1`: the RP-LC retention time was 721 s.

`Cc1ccn2cc(-c3ccc(NS(=O)(=O)c4ccc(Cl)c(Cl)c4)cc3)nc2n1`: the RP-LC retention time amounted to 743 s.

Molecule `Cc1ccc(-c2noc(Cn3ccn4nc(-c5ccc6c(c5)OCO6)cc4c3=O)n2)cc1` gave an RP-LC retention time of 1050 s.

Consider `CCCCc1ccc(N2C(=O)CC(c3ccc(OC)c(OC)c3)CC2=O)cc1`, for which the RP-LC retention time was 1040 s.

For the molecule `Cc1oc(-c2[nH]ncc2C(=O)N2CCOCC2)cc1S(=O)(=O)N1CCN(C)CC1`, the RP-LC retention time was 553 s.

Turning to `CCCn1cc(CCNS(=O)(=O)c2ccc(F)c(Cl)c2)c2cccnc21`, the RP-LC retention time was 931 s.

Take `Cc1noc(C)c1-c1ccc(S(=O)(=O)N2CCN(C)CC2)cc1`: the RP-LC retention time stood at 610 s.

On to `c1ccc(-c2nc3cc(-c4noc(-c5cccnc5)n4)ccc3o2)cc1`, for which the RP-LC retention time worked out at 1290 s.

For `O=C(O)c1ccc(-c2nnc3ccc(NC(=O)C4CCC4)cn23)cc1`, the RP-LC retention time turned out to be 683 s.

`Cc1ccc(-c2cc3c(N4CCC(C(=O)NC5CCCC5)CC4)nccn3n2)c(C)c1` showed an RP-LC retention time of 849 s.

On to `Cn1nc(C2CC2)nc1C1CN(C(=O)Cc2ccc(S(C)(=O)=O)cc2)C1`, for which the RP-LC retention time worked out at 611 s.

The molecule `Cc1cc2c(cc1S(=O)(=O)N1CCCC1C(=O)N1CCN(C3CCCCC3)CC1)OCC(=O)N2` (centres undefined) gave an RP-LC retention time of 584 s.

`CC(=O)N1c2ccc(S(=O)(=O)N3CCCC3C(=O)NCc3ccc4c(c3)OCO4)cc2CC1C` (centres undefined) showed an RP-LC retention time of 779 s.

The molecule `CCCCn1cc(S(=O)(=O)N2CCN(c3ccc(F)cc3)CC2)c2cccnc21` yielded an RP-LC retention time of 1120 s.

For `CN(CCCNC(=O)CCCn1c(=O)c2cccn2c2ccc(F)cc21)Cc1ccccc1`, the RP-LC retention time came to 673 s.

For `C[C@H]1CN(C(=O)Nc2cc(F)cc(F)c2)C[C@@H]1c1nc(-c2ccncc2)no1`, the RP-LC retention time came out at 883 s.

`CC(=O)Nc1ccc2c(c1)CN(C(=O)Cc1ccccc1F)C(C(=O)N(C)C)C2` (centres undefined): the RP-LC retention time was determined as 1080 s.

Regarding `O=C(NC1CC1)c1csc(N2CCCCC2)n1`, the RP-LC retention time amounted to 853 s.

For `COc1ccc2[nH]cc(CCNC(=O)Cn3nc(C)c4c(C)onc4c3=O)c2c1`, the RP-LC retention time was determined as 698 s.

`O=C(NCCC1CCN(C(=O)Nc2cc(F)cc(F)c2)CC1)c1ccco1` came in with an RP-LC retention time of 798 s.

For `N#CCCc1ccc2c(c1)-c1[nH]c3ccc([N+](=O)[O-])cc3c1CC(=O)N2`, the RP-LC retention time came out at 778 s.

On to `Cc1cccc(C)c1NC(=O)CSC1=Nc2ccccc2N=C(c2ccccc2)C1`, for which the RP-LC retention time turned out to be 1100 s.

Turning to `O=C(Cn1c(-c2cccs2)cc2cc(F)ccc21)NCCN1CCOCC1`, the RP-LC retention time stood at 680 s.

`CCN1C(=O)COc2cc(-c3noc(C(=O)N4CCN(c5ccccc5)CC4)n3)ccc21` returned an RP-LC retention time of 1030 s.

The molecule `CCn1c(CCNC(=O)c2ccc(Cl)cc2)nc2cccnc21` had an RP-LC retention time of 653 s.

As for `COc1ccc(S(=O)(=O)N2CCCC(C(=O)NC3CCCCCC3)C2)cc1C` (centres undefined), the RP-LC retention time was 1040 s.

Molecule `CCCCN(C)C(=O)c1sc(-c2cn(C(C)C)c3ncccc23)nc1C` had an RP-LC retention time of 1010 s.

`CCc1ccc(NC(=O)N2CCCC(Cn3cnc4cccnc43)C2)cc1` (centres undefined): the RP-LC retention time was found to be 733 s.

`CCOC(=O)C1=C(CN2CCC(C)CC2)NC(=O)NC1c1cccs1` (centres undefined) registered an RP-LC retention time of 611 s.

As for `O=C(c1cccc(F)c1)N1CCC(n2nc(-c3ccsc3)ccc2=O)CC1`, the RP-LC retention time amounted to 807 s.

Consider `CN(C)S(=O)(=O)c1ccc2c(c1)Cc1cc(S(=O)(=O)N(C)C)ccc1-2`, for which the RP-LC retention time was determined as 820 s.

`CCOc1ccccc1N(CC)C(=O)C1CCCN(c2ncnc3c2nc2n3CCCCC2)C1` (centres undefined) came in with an RP-LC retention time of 807 s.

With `CCOC(=O)C1CCN(C(=O)c2nc(N(CC)CC)c3c(C)cc(C)nc3n2)CC1`, the RP-LC retention time was found to be 657 s.

As for `COCCc1noc(-c2ccc(=O)n(CC(=O)Nc3cc(F)ccc3C)c2)n1`, the RP-LC retention time was determined as 704 s.

As for `Cc1nc(C)c(-c2ccc(=O)n(CCNC(=O)c3csc(-c4ccccc4)n3)n2)s1`, the RP-LC retention time is 683 s.

As to `Cn1cc2c3c(cccc31)CN(C(=O)c1ccc(Cl)cc1)CC2`, the RP-LC retention time came out at 988 s.

`COc1ccc(-c2n[nH]c3c2C(c2ccc(O)c(OC)c2)NC3=O)cc1` (centres undefined) had an RP-LC retention time of 639 s.

For `CCOC(=O)c1cc(OCC)c2c(ccc3ccccc32)n1`, the RP-LC retention time was determined as 1080 s.

`Cc1cc(C)n(-c2cc(NCCNC(=O)c3c[nH]c4ccccc34)nc(C)n2)n1`: the RP-LC retention time was 630 s.

In turn, `CC(NC(=O)Cc1cn(C)c2ncccc12)c1ccccc1` (centres undefined) registered an RP-LC retention time of 679 s.

`Cc1cc(Br)ccc1-c1ccc(CNCCCN(C)C)o1` came in with an RP-LC retention time of 927 s.

Molecule `COc1ccccc1-c1noc(C2CCCN2C(=O)Nc2ccc(Cl)cc2)n1` (centres undefined) registered an RP-LC retention time of 920 s.

`CN(NC1=NCCO1)c1ccc2ccccc2c1` came in with an RP-LC retention time of 620 s.
